From PubChem BioAssay (NCI)
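Five concentrations, 48 hours, 96-well plates. The concentration for full growth arrest is given as TGI.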

Assays:
Experiment in all cases: DTP human tumour cell line panel, 48 h
HL-60(TB) leukemia = tested on: HL-60(TB) leukemia
RXF 393 renal = tested on: RXF 393 renal
SNB-19 CNS = tested on: SNB-19 CNS
SN12C renal = tested on: SN12C renal
SK-MEL-5 melanoma = tested on: SK-MEL-5 melanoma
OVCAR-8 ovarian = tested on: OVCAR-8 ovarian
SW-620 colon = tested on: SW-620 colon
786-0 renal = tested on: 786-0 renal
HCC-2998 colon = tested on: HCC-2998 colon
HOP-92 NSCLC = tested on: HOP-92 NSCLC
KM12 colon = tested on: KM12 colon

## Cc1ccc(S(=O)(=O)NC2C(=O)c3ccccc3C(=O)C2n2cnc3ccccc32)cc1 (centres undefined)
HL-60(TB) leukemia
  TGI: 40.8 µM
RXF 393 renal
  TGI: 61.8 µM
SNB-19 CNS
  TGI: 89.7 µM
SN12C renal
  TGI: > 100 µM
SK-MEL-5 melanoma
  TGI: 42.6 µM
OVCAR-8 ovarian
  TGI: > 100 µM
SW-620 colon
  TGI: 94.4 µM
786-0 renal
  TGI: > 100 µM
HCC-2998 colon
  TGI: 34.7 µM
HOP-92 NSCLC
  TGI: > 100 µM
KM12 colon
  TGI: > 100 µM

## CN(C)C(=O)Nc1cc2c3c(c1)CCCN3CCC2
HL-60(TB) leukemia
  TGI: > 10 µM
RXF 393 renal
  TGI: > 10 µM
SNB-19 CNS
  TGI: > 10 µM
SN12C renal
  TGI: > 10 µM
SK-MEL-5 melanoma
  TGI: > 10 µM
OVCAR-8 ovarian
  TGI: > 10 µM
SW-620 colon
  TGI: > 10 µM
786-0 renal
  TGI: > 10 µM
HCC-2998 colon
  TGI: > 10 µM
HOP-92 NSCLC
  TGI: > 10 µM
KM12 colon
  TGI: > 10 µM

## Cc1cccc2[s+]snc12
HL-60(TB) leukemia
  TGI: 41.8 µM
RXF 393 renal
  TGI: > 75.1 µM
SNB-19 CNS
  TGI: > 100 µM
SN12C renal
  TGI: > 100 µM
SK-MEL-5 melanoma
  TGI: > 100 µM
OVCAR-8 ovarian
  TGI: > 63.7 µM
SW-620 colon
  TGI: 48.9 µM
786-0 renal
  TGI: > 100 µM
HCC-2998 colon
  TGI: > 100 µM
HOP-92 NSCLC
  TGI: 44.9 µM
KM12 colon
  TGI: > 100 µM

## NNc1nc2ccccc2s1
HL-60(TB) leukemia
  TGI: > 100 µM
RXF 393 renal
  TGI: > 100 µM
SNB-19 CNS
  TGI: > 100 µM
SN12C renal
  TGI: > 100 µM
SK-MEL-5 melanoma
  TGI: > 100 µM
OVCAR-8 ovarian
  TGI: > 100 µM
SW-620 colon
  TGI: > 100 µM
786-0 renal
  TGI: > 100 µM
HCC-2998 colon
  TGI: > 100 µM
HOP-92 NSCLC
  TGI: > 100 µM
KM12 colon
  TGI: > 100 µM

## COc1cc(NCc2ccc3nc(OC)c(OC)nc3c2)cc(OC)c1OC
HL-60(TB) leukemia
  TGI: > 100 µM
RXF 393 renal
  TGI: > 100 µM
SNB-19 CNS
  TGI: > 100 µM
SN12C renal
  TGI: > 100 µM
SK-MEL-5 melanoma
  TGI: > 100 µM
OVCAR-8 ovarian
  TGI: > 100 µM
SW-620 colon
  TGI: > 100 µM
786-0 renal
  TGI: > 100 µM
HCC-2998 colon
  TGI: > 100 µM
HOP-92 NSCLC
  TGI: > 100 µM
KM12 colon
  TGI: > 100 µM

## COC(=O)C1[C@@H](C(=O)OC)C12C=Cc1ccccc1C=C2 (some centres undefined)
HL-60(TB) leukemia
  TGI: > 100 µM
RXF 393 renal
  TGI: > 100 µM
SNB-19 CNS
  TGI: > 100 µM
SN12C renal
  TGI: > 100 µM
SK-MEL-5 melanoma
  TGI: > 100 µM
OVCAR-8 ovarian
  TGI: > 100 µM
SW-620 colon
  TGI: > 100 µM
786-0 renal
  TGI: > 100 µM
HCC-2998 colon
  TGI: > 100 µM
HOP-92 NSCLC
  TGI: > 100 µM
KM12 colon
  TGI: > 100 µM

## C#C[C@]1(O)CCC2C3CCc4cc(Oc5nc(F)nc(-c6c7cc8ccccc8cc7c7n6CCS7)n5)ccc4C3CCC21C (some centres undefined)
HL-60(TB) leukemia
  TGI: > 100 µM
RXF 393 renal
  TGI: > 100 µM
SNB-19 CNS
  TGI: > 100 µM
SN12C renal
  TGI: > 100 µM
SK-MEL-5 melanoma
  TGI: > 100 µM
OVCAR-8 ovarian
  TGI: > 100 µM
SW-620 colon
  TGI: > 100 µM
786-0 renal
  TGI: > 100 µM
HCC-2998 colon
  TGI: > 100 µM
HOP-92 NSCLC
  TGI: > 100 µM
KM12 colon
  TGI: > 100 µM

## CCCn1c(SCC)c2cc3cc4ccccc4cc3cc2c1-c1nc(F)nc(F)n1
HL-60(TB) leukemia
  TGI: > 100 µM
RXF 393 renal
  TGI: > 100 µM
SNB-19 CNS
  TGI: > 100 µM
SN12C renal
  TGI: > 100 µM
SK-MEL-5 melanoma
  TGI: > 100 µM
OVCAR-8 ovarian
  TGI: > 100 µM
SW-620 colon
  TGI: > 100 µM
786-0 renal
  TGI: > 100 µM
HCC-2998 colon
  TGI: > 100 µM
HOP-92 NSCLC
  TGI: > 100 µM
KM12 colon
  TGI: > 100 µM

## Cn1c(NS(=O)(=O)c2ccccc2)nc2ccccc21
HL-60(TB) leukemia
  TGI: > 100 µM
RXF 393 renal
  TGI: > 100 µM
SNB-19 CNS
  TGI: > 100 µM
SN12C renal
  TGI: > 100 µM
SK-MEL-5 melanoma
  TGI: > 100 µM
OVCAR-8 ovarian
  TGI: > 100 µM
SW-620 colon
  TGI: > 100 µM
786-0 renal
  TGI: > 100 µM
HCC-2998 colon
  TGI: > 100 µM
HOP-92 NSCLC
  TGI: > 100 µM
KM12 colon
  TGI: > 100 µM

## CC/C=C/C(=O)CC(O)(C(F)(F)F)C(F)(F)F
HL-60(TB) leukemia
  TGI: > 100 µM
RXF 393 renal
  TGI: > 100 µM
SNB-19 CNS
  TGI: > 100 µM
SN12C renal
  TGI: > 100 µM
SK-MEL-5 melanoma
  TGI: > 100 µM
OVCAR-8 ovarian
  TGI: > 100 µM
SW-620 colon
  TGI: > 100 µM
786-0 renal
  TGI: > 100 µM
HCC-2998 colon
  TGI: > 100 µM
HOP-92 NSCLC
  TGI: 86.3 µM
KM12 colon
  TGI: > 100 µM

## COc1cccc2c(Nc3ccc(S(=O)(=O)NC(C)=O)cc3)c3ccc([N+](=O)[O-])cc3nc12
HL-60(TB) leukemia
  TGI: > 100 µM
RXF 393 renal
  TGI: > 100 µM
SNB-19 CNS
  TGI: > 100 µM
SN12C renal
  TGI: > 100 µM
SK-MEL-5 melanoma
  TGI: > 78.3 µM
OVCAR-8 ovarian
  TGI: > 100 µM
SW-620 colon
  TGI: > 79.8 µM
786-0 renal
  TGI: > 100 µM
HCC-2998 colon
  TGI: > 100 µM
HOP-92 NSCLC
  TGI: > 100 µM
KM12 colon
  TGI: > 35.3 µM

## CCN(CC)C(=S)SNCc1ccc(S(N)(=O)=O)cc1
HL-60(TB) leukemia
  TGI: 22.8 µM
RXF 393 renal
  TGI: 45.9 µM
SNB-19 CNS
  TGI: 34.1 µM
SN12C renal
  TGI: 28.9 µM
SK-MEL-5 melanoma
  TGI: 36.2 µM
OVCAR-8 ovarian
  TGI: 28.4 µM
SW-620 colon
  TGI: > 50.1 µM
786-0 renal
  TGI: 28 µM
HCC-2998 colon
  TGI: > 100 µM
HOP-92 NSCLC
  TGI: 45.7 µM
KM12 colon
  TGI: 29.2 µM

## CC(=O)OC1COC(n2c(-c3ccc(Cl)cc3)cc(-c3ccccc3)c(C#N)c2=S)C(OC(C)=O)C1OC(C)=O (centres undefined)
HL-60(TB) leukemia
  TGI: > 89.9 µM
RXF 393 renal
  TGI: 26.9 µM
SNB-19 CNS
  TGI: > 79.6 µM
SN12C renal
  TGI: 31.8 µM
SK-MEL-5 melanoma
  TGI: > 42.2 µM
OVCAR-8 ovarian
  TGI: 21.6 µM
SW-620 colon
  TGI: > 100 µM
786-0 renal
  TGI: 26.8 µM
HCC-2998 colon
  TGI: > 90.3 µM
HOP-92 NSCLC
  TGI: 28.8 µM
KM12 colon
  TGI: > 100 µM

## CN(C(=O)Cc1ccc(Cl)c(Cl)c1)[C@@H]1CCCC[C@H]1[N+]1(C)CC=CC1
HL-60(TB) leukemia
  TGI: > 100 µM
RXF 393 renal
  TGI: > 100 µM
SNB-19 CNS
  TGI: > 100 µM
SN12C renal
  TGI: > 100 µM
SK-MEL-5 melanoma
  TGI: > 100 µM
OVCAR-8 ovarian
  TGI: > 100 µM
SW-620 colon
  TGI: > 100 µM
786-0 renal
  TGI: > 100 µM
HCC-2998 colon
  TGI: > 100 µM
HOP-92 NSCLC
  TGI: > 100 µM
KM12 colon
  TGI: > 100 µM

## CC1(C)CCCCCCC2OC2CCCCCC(C)(C)C1=O (centres undefined)
HL-60(TB) leukemia
  TGI: 57 µM
RXF 393 renal
  TGI: 49.5 µM
SNB-19 CNS
  TGI: > 100 µM
SN12C renal
  TGI: > 64 µM
SK-MEL-5 melanoma
  TGI: 50.2 µM
OVCAR-8 ovarian
  TGI: > 100 µM
SW-620 colon
  TGI: > 100 µM
786-0 renal
  TGI: > 100 µM
HCC-2998 colon
  TGI: > 70.8 µM
HOP-92 NSCLC
  TGI: > 81 µM
KM12 colon
  TGI: 97 µM

## NC1=NN(c2ccccc2)C2(O)c3ccncc3C3=NN(c4ccccc4)C(=O)C132 (centres undefined)
HL-60(TB) leukemia
  TGI: > 100 µM
RXF 393 renal
  TGI: > 100 µM
SNB-19 CNS
  TGI: > 100 µM
SN12C renal
  TGI: > 100 µM
SK-MEL-5 melanoma
  TGI: > 100 µM
OVCAR-8 ovarian
  TGI: > 100 µM
SW-620 colon
  TGI: > 100 µM
786-0 renal
  TGI: > 100 µM
HCC-2998 colon
  TGI: > 100 µM
HOP-92 NSCLC
  TGI: > 100 µM
KM12 colon
  TGI: > 100 µM

## CC(=O)N(CCc1ccccc1)C(C#N)c1ccc(OCCCCCCCCCCOc2ccc(C(C#N)N(CCc3ccccc3)C(C)=O)cc2)cc1 (centres undefined)
HL-60(TB) leukemia
  TGI: > 100 µM
RXF 393 renal
  TGI: 63.2 µM
SNB-19 CNS
  TGI: 88.1 µM
SN12C renal
  TGI: > 100 µM
SK-MEL-5 melanoma
  TGI: > 100 µM
OVCAR-8 ovarian
  TGI: > 100 µM
SW-620 colon
  TGI: > 100 µM
786-0 renal
  TGI: 50 µM
HCC-2998 colon
  TGI: > 100 µM
HOP-92 NSCLC
  TGI: 43.5 µM
KM12 colon
  TGI: > 100 µM

## OC(C/C(=N\N1CCCCC1)c1cccs1)(C(F)(F)F)C(F)(F)F
HL-60(TB) leukemia
  TGI: > 10 µM
RXF 393 renal
  TGI: > 10 µM
SNB-19 CNS
  TGI: > 10 µM
SN12C renal
  TGI: > 10 µM
SK-MEL-5 melanoma
  TGI: > 10 µM
OVCAR-8 ovarian
  TGI: > 10 µM
SW-620 colon
  TGI: > 10 µM
786-0 renal
  TGI: > 10 µM
HCC-2998 colon
  TGI: > 10 µM
HOP-92 NSCLC
  TGI: > 10 µM
KM12 colon
  TGI: > 10 µM

## C[C@H]1C[C@H](C)c2ccccc2N(C)C1=Nc1ccccc1
HL-60(TB) leukemia
  TGI: 48.3 µM
RXF 393 renal
  TGI: 92.2 µM
SNB-19 CNS
  TGI: > 100 µM
SN12C renal
  TGI: > 100 µM
SK-MEL-5 melanoma
  TGI: 31.3 µM
OVCAR-8 ovarian
  TGI: > 100 µM
SW-620 colon
  TGI: > 100 µM
786-0 renal
  TGI: 64 µM
HCC-2998 colon
  TGI: > 100 µM
HOP-92 NSCLC
  TGI: 40.1 µM
KM12 colon
  TGI: > 100 µM
